Assays:
[1] = Acute randomized placebo-controlled crossover trial of 200 mg TeaCrine: anchored VAS questionnaires; format: in vivo, human
Experimental: In order to examine the beneficial experiential effects and psychometric properties of theacrine supplementation in healthy subjects, explore optimal dosing and potential cumulative effects in a healthy human cohort with a 7-day, sub-acute repetitive dosing protocol, and acquire preliminary data on various biomarkers of safety and tolerability, an experiment was performed. […] A subset of 6 subjects underwent a separate 7-day, open-label, repeated dose study comparing 100 mg, 200 mg and 400 mg of TC. The experiment was a randomized, placebo-controlled, double-blind, within-subject crossover clinical trial (for N=15 study). A further subset study was open-label, sub-acute (7-day), repetitive dosing trial (for N=6 subset). Six (6) subjects provided written and dated informed consent to participate in the 7-day repetitive dosing study between Dec. 15, 2012 and Feb. 21, 2013. A separate cohort of fifteen (15) subjects provided written and dated informed consent for the acute dose, placebo-controlled, crossover clinical trial. All subjects were in good health as determined by physical examination and medical history, between the ages of 18 and 45 (inclusive). […] Subjects were willing and able to comply with the experimental and supplement protocol. […] Physical activity levels and health history were determined using standardized questionnaires. Heart rate and blood pressure were measured using an Omron HEM-780. Standing height was determined using a wall-mounted stadiometer. […] Medical Scale. A 100 mm anchored VAS questionnaire for energy, fatigue, and concentration was distributed at each acute lab session; additional VAS questionnaires were distributed for the daily assessment over a 6-hour period during the 7-day subset study. Quest Diagnostics (Pittsburgh, Pa.) was utilized to transport and analyze all blood samples. […] Statistical Analyses for Example 1. Descriptive statistics (mean, median, SD, 95% CIs) were used to quantify subjects physical characteristics. RM ANOVA, as well analyses of co-variance (ANCOVA), using baseline scores as the co-variate (respectively), were used to analyze between trial differences. Alpha was set to 0.05 (P≤0.05) for statistical significance, and <0.10 for trends. Effect sizes were also calculated. Upon arrival for the first testing session, subjects were randomly assigned to receive their respective supplement/placebo. Each subject ingested the sponsor recommended dosage of their respective supplement (1 capsule prior to schedule of assessments). Supplements were prepared in capsule form and packaged in coded generic containers for double-blind administration.

[2] = cited from earlier work
[3] = Acute TeaCrine crossover trial: hemodynamics and side effect profiles; format: in vivo, human
Experimental: Anchored VAS questionnaires were used to detect changes in various aspects of physical and mental energy and performance; side effect profiles, hemodynamics and biochemical markers of safety were also collected over a 3-hr post-dosing period. A subset of 6 subjects underwent a separate 7-day, open-label, repeated dose study comparing 100 mg, 200 mg and 400 mg of TC.
Physical activity levels and health history were determined using standardized questionnaires. Heart rate and blood pressure were measured using an Omron HEM-780. Standing height was determined using a wall-mounted stadiometer. […] Medical Scale. A 100 mm anchored VAS questionnaire for energy, fatigue, and concentration was distributed at each acute lab session; additional VAS questionnaires were distributed for the daily assessment over a 6-hour period during the 7-day subset study. Quest Diagnostics (Pittsburgh, Pa.) was utilized to transport and analyze all blood samples. For each laboratory session, subjects reported to the lab well hydrated, 10-12 hours postprandial, and at least 24-hours after their last exercise session.
Statistical Analyses for Example 1. Descriptive statistics (mean, median, SD, 95% CIs) were used to quantify subjects physical characteristics. […] Effect sizes were also calculated. […]

[4] = Theacrine-caffeine interaction study: heart rate, blood pressure, rate pressure product, tolerability; conditions: at the doses tested, administered alone or in combination
Source text: Study Design and Procedures. […] Theacrine, administered as iTeaCrine.®, was provided by Compound Solutions (Carlsbad, Calif). […] Treatment sequence was randomized using a 4×4 Latin square. There was an approximate 1-week washout period between treatments for all subjects.
Test Visit Procedures. […] A catheter was inserted into the forearm vein for blood sampling. Duplicate measurements of resting heart rate and blood pressure were taken pre-dose and prior to each timed blood sample. In addition, respiratory rate was counted in one minute and body temperature was measured using an ear scanning thermometer (dual readings taken at each time).
Differences between treatment group values were determined for systolic blood pressure (SBP), diastolic blood pressure (DBP), rate pressure product, and heart rate. Parametric data were analyzed by paired Student's t tests of mean differences in values between treatment groups. Statistical significance was defined a priori as a 2-sided or <0.05.

[5] = Single dose theacrine, caffeine or combination: subjective feelings on 10 cm visual analog scale; format: in vivo, human
Experimental: Subjects rated their subjective feelings using a 10 cm visual analog scale at 30 minutes, 1, 2, 3, 4, and 5 hours post ingestion and performed the trail making test (TMT) of cognitive performance at baseline and at hours 2 and 4 post ingestion.

## Cn1c(=O)c2c(n(C)c1=O)n(C)c(=O)n2C [Theacrine, 1,3,7,9-tetramethylpurine-2,6,8-trione]
[1]; 200 mg dose of TC, single dose, trend, vs. PLA −[…], P=0.07
  concentration (VAS): +2.4%
[1]; 200 mg dose of TC, single dose, vs. PLA +5.8%, P=0.04
  fatigue (VAS): −6.7%
[1]; 200 mg dose of TC, single dose, vs. PLA −5.7%, P=0.049
  energy (VAS): +8.6%
[1]; 1, 2 and 3 hours after administration, vs placebo
  perceived energy on VAS (FIG. 2): higher levels of energy
[1]; 60 minutes after administration, vs placebo
  perceived fatigue on VAS (FIG. 3): lower levels of fatigue
[2]; repeat dose theacrine studies
  sensitization or pharmacodynamic tolerance: absence of either sensitization or pharmacodynamic tolerance
[2]; theacrine supplementation up to 400 mg/day for 8 weeks
  safety, adverse effects on hemodynamic parameters: appears to be safe
[3]; 200 mg dose of TC, 3-hr post-dosing period
  changes in systemic hemodynamics or side effect profiles: No changes
[3]; various time intervals after administration
  systemic hemodynamics: systolic and diastolic blood pressure (FIGS. 4 and 5): no substantial change
[4]
  effect on baseline hemodynamic parameters, e.g. heart rate and blood pressure: no effect
[5]; 125 mg theacrine treatment
  time post-ingestion at which increase in subjective focus reached statistical significance: 3 h
[5]; alone at 125 mg or in combination with caffeine
  safety and improvement of subjective feelings related to energy: safe and effective
